We go through nine compounds from ChEMBL document CHEMBL1201862, “PubChem BioAssay data set” (2004).

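Five concentrations, 48 hours, 96-well plates. GI50 = concentration required for 50% inhibition of growth.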 The source made the active and inactive calls. No stated cut-off is given here; in the data, active = GI50 up to about 1.1 µM and inactive = higher.

What all share (test): inhibition of tumour cell growth, NCI panel, 48 h
The test system of test [1] is A498.
The subject of test [2] is HCC 2998.
The subject of test [3] is HCT-116.
Test [4] concerns HOP-92.
Test [5] deals with LOX IMVI.
Test [6] concerns M14.
The subject of test [7] is Malme-3M.
Test [8] has as its system NCI-H460.
Test [9] deals with OVCAR-3.
In test [10] the test system is OVCAR-4.
Test [11] concerns RXF 393.
For test [12], the system named is SF-539.
For test [13], the system named is SK-MEL-2.
Test [14] has as its system SR.
Test [15] has as its system U-251.
The subject of test [16] is UO-31.
Test [17] concerns IGROV-1.
The test system of test [18] is UACC-257.

For `CCCn1c(SCC)c2ccccc2c1-c1nc(F)nc(F)n1`, the GI50 in [1], in [2], in test [3], in test [4], in test [5] and in [6] was > 100 µM (inactive) each time. For the same compound, the GI50 in test [7], in test [8], in [9], in [10], in [11] and in test [12] was > 100 µM (inactive) in each case. Also, the GI50 in [13], in test [14], in test [15] and in test [16] was > 100 µM (inactive) in each case.
Consider `CC(C)c1cccc(=O)c(O)c1`, for which the GI50 is 14.6 µM (inactive) in test [1]; 9.44 µM (inactive) in [2]; 1.72 µM (inactive) in test [3]; 1.75 µM (inactive) in test [4]; 7.8 µM (inactive) in [17]; 2.42 µM (inactive) in [5]. Also, the GI50 in test [6] is 2.03 µM (inactive); in test [7] it was 1.35 µM (inactive); in test [8], 2.27 µM (inactive); in [9] it was 1.24 µM (inactive); in test [10] it was 2.56 µM (inactive); in test [11], 0.299 µM (active). For the same compound, the GI50 is 3.21 µM (inactive) in test [12]; 5.68 µM (inactive) in test [13]; 0.959 µM (active) in test [14]; 0.411 µM (active) in [15]; 1.66 µM (inactive) in test [18]; 3.94 µM (inactive) in test [16].
Take `Cc1cn(C2C=CC(=O)C(C)O2)c(=O)[nH]c1=O` (stereo not given): the GI50 in test [1] is 38.1 µM (inactive); in [3], 12.2 µM (inactive); in test [4], 15.9 µM (inactive); in [17], 18 µM (inactive); in [5], 13.2 µM (inactive); in test [6] it was 15.3 µM (inactive). The GI50 in test [7] was 13.2 µM (inactive); in test [8], 17.9 µM (inactive); in test [9], 17.4 µM (inactive); in test [12], 18.7 µM (inactive); in test [14], 18.3 µM (inactive); in [15], 15.3 µM (inactive). For the same compound, the GI50 in [18] is 14 µM (inactive); in test [16], 14.5 µM (inactive).
With `CCOC(=O)C1=C(C)N2CCOC2(C)C(C(=O)OC)C1c1cccc(Cl)c1` (stereo not given), the GI50 in [1] is > 100 µM (inactive); in test [2], > 100 µM (inactive); in test [3], > 100 µM (inactive); in test [4], 31.6 µM (inactive); in test [17], > 100 µM (inactive); in test [5], > 100 µM (inactive). For the same compound, the GI50 in test [6], in test [7], in test [8], in test [9], in test [12] and in [13] was > 100 µM (inactive) in each case. In addition, the GI50 in test [14], in test [15], in test [18] and in [16] was > 100 µM (inactive) in each case.
With `CCOC(=O)C1=C(C)N(NC(=O)Nc2ccccc2)C2(N)N(NC(=O)Nc3ccccc3)C(C)=C(C(=O)OCC)C12C(=O)OCC` (stereo not given), the GI50 in test [1] was 28.2 µM (inactive); in test [2] it was 27.4 µM (inactive); in [3], 29.9 µM (inactive); in test [4], 18.8 µM (inactive); in test [17] it was > 100 µM (inactive); in test [5], 36.2 µM (inactive). The GI50 in test [6] is 33.2 µM (inactive); in test [7], 33 µM (inactive); in test [8] it was 37.9 µM (inactive); in [9], 49.2 µM (inactive); in test [10] it was 29.5 µM (inactive); in [11], 3.09 µM (inactive). For the same compound, the GI50 in test [12] was 22.1 µM (inactive); in test [13], 52.7 µM (inactive); in test [14] it was 34 µM (inactive); in [15] it was 33 µM (inactive); in [18] it was 67.3 µM (inactive); in test [16], 61.7 µM (inactive).
Consider `O=C1c2c(c3c4ccccc4n4c3c3c2c2ccccc2n3C/C=C\C4)C(=O)N1Cc1ccccc1`, for which the GI50 in test [1], in test [2], in test [3], in test [17], in test [5] and in test [6] was > 100 µM (inactive) throughout. In addition, the GI50 in test [7], in [8], in [9], in [11], in [12] and in test [14] was > 100 µM (inactive) throughout. Moreover, the GI50 in test [15] is 46.5 µM (inactive); in test [18] it was > 100 µM (inactive); in test [16], > 100 µM (inactive).
With `Cc1[nH]c2ccccc2c1C1Cc2ccccc2N1C(=O)/C=C\C(=O)O` (stereo not given), the GI50 was 32.1 µM (inactive) in test [1]; 45.6 µM (inactive) in [2]; 47.1 µM (inactive) in test [3]; 38.2 µM (inactive) in test [4]; 58.1 µM (inactive) in [17]; 18.6 µM (inactive) in [5]. The GI50 was 57.7 µM (inactive) in test [6]; 73.3 µM (inactive) in test [7]; > 100 µM (inactive) in test [8]; 55.2 µM (inactive) in [9]; > 100 µM (inactive) in test [10]; 30.9 µM (inactive) in test [11]. Also, the GI50 in test [12] was 28.4 µM (inactive); in test [13], 21.8 µM (inactive); in test [14], 29.6 µM (inactive); in test [15], 29.5 µM (inactive); in test [18] it was 19 µM (inactive); in test [16], > 100 µM (inactive).
As to `CN(C)CCC(=O)c1ccccc1`, the GI50 is > 71.6 µM (inactive) in [1]; > 58.1 µM (inactive) in test [2]; 28.4 µM (inactive) in [3]; 24.5 µM (inactive) in test [4]; > 58.5 µM (inactive) in test [17]; 36.4 µM (inactive) in [5]. For the same compound, the GI50 was 32.4 µM (inactive) in test [6]; 16.1 µM (inactive) in [7]; > 58.5 µM (inactive) in test [8]; 42.7 µM (inactive) in test [9]; 46.7 µM (inactive) in test [10]; 38.3 µM (inactive) in test [11]. For the same compound, the GI50 in test [12] is > 58.1 µM (inactive); in test [13], > 62.8 µM (inactive); in test [14], 35.1 µM (inactive); in test [15] it was > 56.2 µM (inactive); in [18] it was 37.8 µM (inactive); in [16], > 56.9 µM (inactive).
On to `Nc1nc(O)c2nc(N)n(Cc3ccccc3)c2n1`, for which the GI50 in test [1], in test [2], in test [3], in [4], in test [17] and in test [5] was > 100 µM (inactive) throughout. Besides, the GI50 in [6], in test [7], in [8], in test [9], in [10] and in test [11] was > 100 µM (inactive) throughout. Further, the GI50 in [13], in test [14], in test [15], in [18] and in [16] was > 100 µM (inactive) throughout.
